Results reported in the supplement of paper PMC10307832.

Experiments:
Experiment in all cases: relative viability (nuclei count vs DMSO), 5 days (fraction); higher = more cells survive
[1] = compound: CN(c1ncccc1CNc1nc(Nc2ccc3c(c2)CC(=O)N3)ncc1C(F)(F)F)S(C)(=O)=O + N=C(N)NC(=N)NCCc1ccccc1 [Phenformin] (partner 250 µM)
Method in brief: (§1)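 Values are medians from duplicate plates. Each reflects relative viability, defined as the nuclei count of treated wells over that of vehicle wells. Lung cancer cell lines in 1536-well plates were pin-tool dosed one day after seeding with one drug alone or with a fixed anchor-drug dose plus five library-drug doses (not always all listed) in √10 steps, then fixed, stained and imaged at 4× after 5 days.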

[2] = compound: CN(c1ncccc1CNc1nc(Nc2ccc3c(c2)CC(=O)N3)ncc1C(F)(F)F)S(C)(=O)=O + CS(=O)(=O)N1CCN(Cc2cc3nc(-c4cccc5[nH]ncc45)nc(N4CCOCC4)c3s2)CC1 [Pictilisib] (partner 1 µM)
Method in brief: as §1

[3] = compound: CN(c1ncccc1CNc1nc(Nc2ccc3c(c2)CC(=O)N3)ncc1C(F)(F)F)S(C)(=O)=O + CC(=O)c1c(C)c2cnc(Nc3ccc(N4CCNCC4)cn3)nc2n(C2CCCC2)c1=O [Palbociclib] (partner 0.5 µM)
Method in brief: as §1

[4] = compound: CN(c1ncccc1CNc1nc(Nc2ccc3c(c2)CC(=O)N3)ncc1C(F)(F)F)S(C)(=O)=O + Nc1ncn([C@H]2C[C@H](O)[C@@H](CO)O2)c(=O)n1 [Decitabine] (partner 2 µM)
Method in brief: as §1

| Cell Line | relative viability ([1]; first compound 0.01 µM) | relative viability ([1]; first compound 0.03162 µM) | relative viability ([1]; first compound 0.1 µM) | relative viability ([1]; first compound 0.3162 µM) | relative viability ([1]; first compound 1 µM) | relative viability ([2]; first compound 0.01 µM) | relative viability ([2]; first compound 0.03162 µM) | relative viability ([2]; first compound 0.1 µM) | relative viability ([2]; first compound 0.3162 µM) | relative viability ([2]; first compound 1 µM) | relative viability ([3]; first compound 0.01 µM) | relative viability ([3]; first compound 0.03162 µM) | relative viability ([3]; first compound 0.1 µM) | relative viability ([3]; first compound 0.3162 µM) | relative viability ([3]; first compound 1 µM) | relative viability ([4]; first compound 0.01 µM) | relative viability ([4]; first compound 0.03162 µM) | relative viability ([4]; first compound 0.1 µM) | relative viability ([4]; first compound 0.3162 µM) | relative viability ([4]; first compound 1 µM) |
| --- | --- | --- | --- | --- | --- | --- | --- | --- | --- | --- | --- | --- | --- | --- | --- | --- | --- | --- | --- | --- |
| SK-MES-1 | 0.698 | 0.63 | 0.658 | 0.596 | 0.513 | 0.401 | 0.322 | 0.293 | 0.311 | 0.367 | 0.286 | 0.298 | 0.304 | 0.296 | 0.294 | 0.441 | 0.467 | 0.465 | 0.36 | 0.363 |
| NCI-H1666 | 0.524 | 0.621 | 0.514 | 0.508 | 0.384 | 0.549 | 0.373 | 0.404 | 0.532 | 0.404 | 0.696 | 0.614 | 0.627 | 0.639 | 0.543 | 0.729 | 0.749 | 0.642 | 0.666 | 0.628 |
| NCI-H1355 | 0.45 | 0.442 | 0.449 | 0.406 | 0.432 | 0.399 | 0.474 | 0.346 | 0.432 | 0.381 | 0.387 | 0.362 | 0.407 | 0.418 | 0.331 | 0.368 | 0.36 | 0.337 | 0.404 | 0.379 |
| HCC-827 | 0.402 | 0.465 | 0.432 | 0.441 | 0.404 | 0.878 | 1.08 | 1.09 | 1.15 | 1.07 | 0.453 | 0.462 | 0.503 | 0.545 | 0.437 | 0.284 | 0.309 | 0.348 | 0.413 | 0.391 |
| HARA | 0.449 | 0.5 | 0.532 | 0.432 | 0.356 | 0.305 | 0.556 | 0.365 | 0.544 | 0.377 | 0.211 | 0.276 | 0.231 | 0.203 | 0.247 | 0.66 | 0.599 | 0.492 | 0.597 | 0.573 |
| HCC-366 | 0.662 | 0.695 | 0.614 | 0.577 | 0.606 | 0.108 | 0.155 | 0.0871 | 0.197 | 0.19 | 0.41 | 0.391 | 0.342 | 0.336 | 0.316 | 0.332 | 0.369 | 0.327 | 0.354 | 0.307 |
| NCI-H322M | 0.88 | 0.828 | 0.827 | 0.89 | 0.875 | 0.495 | 0.48 |  | 0.593 | 0.553 | 0.481 | 0.503 | 0.529 | 0.475 | 0.488 | 0.697 | 0.802 | 0.775 | 0.681 | 0.714 |
| NCI-H2347 | 0.37 | 0.38 | 0.6 | 0.407 | 0.221 | 0.609 | 0.614 | 0.74 | 0.919 | 0.362 | 0.434 | 0.389 | 0.426 | 0.354 | 0.377 | 0.655 | 0.598 | 0.587 | 0.593 | 0.57 |
| NCI-H1975 | 0.386 | 0.41 | 0.377 | 0.392 | 0.311 | 0.278 | 0.282 | 0.337 | 0.268 | 0.281 | 0.602 | 0.639 | 0.712 | 0.532 | 0.502 | 0.423 | 0.403 | 0.432 | 0.417 | 0.436 |
| UMC-11 | 0.333 | 0.366 | 0.334 | 0.314 | 0.262 | 0.759 | 0.843 | 0.793 | 0.847 | 0.708 | 0.316 | 0.346 | 0.394 | 0.317 | 0.34 | 0.568 | 0.681 | 0.626 | 0.838 | 0.628 |
| ABC-1 | 0.214 | 0.238 | 0.26 | 0.279 | 0.229 | 0.74 | 0.822 | 0.746 | 0.952 | 0.847 | 0.608 | 0.609 | 0.725 | 0.814 | 0.676 | 1.01 | 1.17 | 0.949 | 0.944 | 1.09 |
| A-427 | 0.337 | 0.315 | 0.353 | 0.269 | 0.291 | 0.69 | 0.753 | 0.638 | 0.73 | 0.667 | 0.529 | 0.491 | 0.516 | 0.546 | 0.491 | 0.549 | 0.568 | 0.588 | 0.664 | 0.61 |
| LCLC-97TM1 | 0.345 | 0.437 | 0.425 | 0.397 | 0.401 |  | 0.23 | 0.196 | 0.159 | 0.148 | 0.217 | 0.176 | 0.171 | 0.18 | 0.158 | 0.228 | 0.212 | 0.2 | 0.238 | 0.215 |
| HCC-15 | 0.492 | 0.501 | 0.463 | 0.384 | 0.405 | 0.817 | 0.68 | 0.711 | 0.716 | 0.622 | 0.709 | 0.747 | 0.65 | 0.609 | 0.583 | 0.639 | 0.629 | 0.548 | 0.496 | 0.523 |
| NCI-H647 | 0.483 | 0.689 | 0.616 | 0.579 | 0.401 | 0.529 | 0.365 | 0.38 |  | 0.594 | 0.349 | 0.402 | 0.319 | 0.367 | 0.322 | 0.425 | 0.51 | 0.498 | 0.544 | 0.502 |
| SW 1573 | 0.383 | 0.405 | 0.381 | 0.412 | 0.314 | 0.584 | 0.52 | 0.422 | 0.573 | 0.454 | 0.482 | 0.399 | 0.346 | 0.31 | 0.35 | 0.583 | 0.492 | 0.469 | 0.657 | 0.68 |
| NCI-H1651 | 0.348 | 0.365 | 0.359 | 0.365 | 0.358 | 0.523 | 0.617 | 0.601 | 0.596 | 0.546 | 0.527 | 0.529 | 0.529 | 0.487 | 0.5 | 0.657 | 0.695 | 0.623 | 0.713 | 0.576 |
